Entries after “also recorded” stand apart in the source; their conditions may differ.
Tests used:
FaDu xenografts = assay: Longitudinal dual tracer PET in two FaDu xenografts; format: in vivo, human tumor xenograft in NIH-Foxn1mu rat; conditions: rat, [^18F]FDG
Description: (§1) A431 (human epidermoid carcinoma) and FaDu (human squamous carcinoma of the hypopharynx) cell lines were purchased from American Type Culture Collection (ATCC). The cells were cultured in Dulbecco’s Modified Eagle’s Medium (4500 mg/L D-glucose containing L-glutamine) and were maintained at 37 °C in a humidified atmosphere, containing 5% CO2. All media were additionally supplemented with 1 mM sodium pyruvate, 100 units penicillin/mL, 100 μg streptomycin/mL, and 10% fetal bovine serum (Gibco). Media for FaDu cells were further supplemented with 0.1 mM non-essential amino acids and 2 mM HEPES. The integrity of the cell lines was verified with short tandem repeat profiling cell authentication analysis (LGC Standards).
(§2) Rodents were anaesthetized (1.5% isoflurane (Virbac, Carros Cedex, France) blended with air (7:3) in a vaporizer (E-Z systems) delivered through a Microflex non-rebreather mask (Euthanex Corp)) and then i.v. injected (tail vein) with the radiotracer. PET imaging was performed using a microPET Focus 120 (CTI Concorde Microsystems, Knoxville, TN, USA). Data were acquired in list mode and reconstructed using Filtered Back Projection for the constant bed motion (CBM) scans or, to increase the spatial resolution in the dynamic scans, Ordered Subset […] in 2 dimensions, 4 iterations, and 16 subsets. Data, normalized and corrected for randoms, dead time, and radioactivity decay, were processed using MicroPET Manager and evaluated using the Inveon Research Workplace (IRW) software (Siemens Medical Systems, Malvern, PA, USA). The ROI selections were based on the PET images and the radioactivity in ROIs was calculated as mean or maximum standard uptake values (SUVmean or SUVmax) normalized to body weight. Blood ROIs were delineated on the left ventricle of the heart in the first frames of the scan. Liver ROIs were drawn on one lobe. Muscle ROIs were drawn on the front (rat) and hind (mouse) leg muscle on the images summed over the entire scan. […] Growth of the tumor xenografts was monitored by caliper measurements. […]

A431 xenografts = assay: PET uptake in A431 xenografts after nitroglycerin (NG) ointment; format: in vivo, human tumor xenograft in NIH-Foxn1mu rat; conditions: NG ointment 1 mg/tumor cutaneous, [^68Ga]ABY-028 uptake
Description: as §1, §2

SMILES | increase of uptake between early and late imaging, day 0 (FaDu xenografts; both FaDu tumors, 50 to 160 min, day 0) | increase of uptake between early and late imaging, day 3 (FaDu xenografts; both FaDu tumors, 50 to 160 min, day 3) [%] | decrease of SUV in tumor center, left tumor, day 3 (FaDu xenografts; left FaDu tumor, area in center extending to one edge, both time points) | effect of NG on tracer radioactivity in A431 xenografts (A431 xenografts) | effect of NG on tracer radioactivity in A431 xenografts (A431 xenografts; listed as NG) | effect of NG on tracer radioactivity in A431 xenografts (A431 xenografts; listed as Nitroglycerin (NG))
O=C[C@H]([18F])[C@@H](O)[C@H](O)[C@H](O)CO [[^18F]FDG, [2-^18F]-2-Fluoro-2-deoxy-D-glucose] | approximately 20% | ~35 | approximately 30% | – | – | –
O=[N+]([O-])OCC(CO[N+](=O)[O-])O[N+](=O)[O-] [nitroglycerin, glyceryltrinitrate] | – | – | – | increased radioactivity in the A431 xenografts | A more rapid increase in focal radioactivity levels; also recorded: increased uptake of albumin-bound [^68Ga]ABY-028 | NG-induced changes are revealed by the SUVmax

Reference: PMC7509035, “[^68Ga]ABY-028: an albumin-binding domain (ABD) protein-based imaging tracer for positron emission tomography (PET) studies of altered vascular permeability and predictions of albumin-drug conjugate transport” (EJNMMI Research, 2020)
